The text below walks through data of patent publication US20260355199A1, “COMPOSITIONS AND METHODS FOR TREATING OR PREVENTING NONALCOHOLIC STEATOHEPATITIS (NASH), ANOREXIA, DEPRESSION, ENDOMETRIOSIS, AND OTHER DISEASES OR DISORDERS” (priority 2022, published 2026).

The subject of data set [1] is HT-22 mouse hippocampal neuronal cells. In words: DNA 5hmC level in HT-22 hippocampal neuronal cells. It is filed as cell-based. Conditions: 10 μM, 24 h. The text has this:
It was not unprecedented that compounds initially developed as protein function inhibitors were later serendipitously found to be protein degraders (Bekes, M. et al., 2022, Nature Reviews Drug Discovery, 21(3):181-200).

The conditions of data set [2]: dosage and administration regimes used; cited from earlier work.
The nature of data set [3]: Liver toxicity (plasma ALT, AST, bilirubin) in endometriosis mice. It is filed as in vivo, mouse. Conditions: 6 weeks; for liver toxicity (plasma ALT, AST, bilirubin): 2.5 mg/kg i.p. once a week. The procedure: Blood samples were collected in EDTA tubes (Microtainer with K2EDTA, BD, 365974) by cardiac puncture of terminally anesthetized animals. The tubes were centrifuged at 2,000×g at 4 °C for 20 min, and plasma was collected and stored at −80 °C until use. Blood chemistry were measured according to the manufacturer's instructions. Kits used to measure alanine transaminase (EALT-100) and aspartate transaminase (EASTR-100) were purchased from Bioassay Systems. The bilirubin assay kit (MAK126) was purchased from Sigma Aldrich.

In data set [4] the test system is TET3. Description: TET3 protein in RAW 264.7 cells. Type of data set: cell-based, mouse. Conditions: RAW 264.7, 10 μM, 24 h. The procedure: For siRNA transfection in a 24-well plate scale of Raw 264.7 cells, 10 pmol of NT siRNA (AM4636, Ambion) or Tet3 siRNA (4390815/s101483, Ambion) was mixed with 100 μL of OPTI-MEM (Gibco, 31985-070) by gentle pipetting. In parallel, 3 μL of Lipofectamine RNAiMAX (Invitrogen, 13778-150) was mixed with 100 μL of OPTI-MEM by gentle pipetting. Following 5 min of incubation at RT, the two were combined and the resulting 200 μL of transfection solution was added to each well of cells. After 24 h of incubation at […] in a 5% humidified CO2 tissue culture incubator, 300 μL of growth media was added and incubation was continued until cell harvesting.
Bobcat339 Treatment of Cultured Cells Bobcat339 powder (Sigma-Aldrich, SML2611) was freshly dissolved in DMSO at a concentration of 5 mM and filtered through a 0.22 micron. Cells grown at a density of 80-90% were incubated in growth media with vehicle (DMSO) or Bobcat339 at a final concentration of 10 μM for 24 h, followed by RNA and protein extraction.
For TET3 expression restoration experiments, cells seeded in 24-well plates were infected with Ad-GFP or Ad-TET3 at 4000 gc/cell. Following 16 h of infection, vehicle or Bobcat339 were added at a final concentration of 10 μM. Protein and RNA were isolated 48 hours later and analyzed. […]

The test system of data set [5] is TET2. Description: TET2 expression in GT1-7 cells. Type of data set: cell-based, mouse. Conditions: 10 μM, 6 h. The protocol:
For Bobcat339 treatment (FIG. 15A and FIG. 15B), GT1-7 cells grown in 24-well plates at 2×10^5 cells/well were incubated with vehicle or Bobcat339 at a final concentration of 10 μM for 6 h, followed by RNA and protein extractions. For TET3 protein stability assay (FIG. 15B), GT1-7 cells in 24-well plates at 2×10^5 cells/well were incubated with vehicle or Bobcat339 at a final concentration of 10 μM for 3 hours, followed by addition of cycloheximide (CHX, Cell Signaling, 2112) at a final concentration of […] in the presence of 10 μM of Bobcat339. Proteins were harvested at 0, 1, 2, and 3 hours after addition of CHX. For TET3 expression restoration experiments (FIG. 15C and FIG. 15D), GT1-7 or SH-SY5Y cells seeded in 24-well plates at 2×10^5 cells/well were infected with Ad-GFP or Ad-TET3 at 4000 gc/cell. Following 16 h of infection, vehicle or Bobcat339 were added at a final concentration of 10 μM. Protein and RNA were isolated 48 h later and analyzed.
GT1-7 and SH-SY5Y cells in 24-well plates were collected by manual scraping in 2×SDS-sample buffer containing 1× Phosphatase inhibitor cocktail (Thermo, 78427) and 1× Protease inhibitor cocktail (Thermo, 78438), followed by heating at 100 °C for 5 min with occasional vortexing. […]

Molecules are shown by their SMILES. Entries after “also recorded” stand apart in the source; their conditions may differ.

On to `Nc1nc(=O)n(-c2cccc(-c3ccccc3)c2)cc1Cl` [Bobcat339, 4-Amino-1-[1,1′-biphenyl]-3-yl-5-chloro-2(1H)-pyrimidinone], for which, in data set [1], the “DNA 5hmC levels” value is listed as “decreased DNA 5hmC levels”. The adverse pathology entry in data set [2] was “minimal adverse pathology”. Further, the “liver toxicity (plasma ALT, AST, bilirubin)” value in data set [3] is listed as “no evidence of liver toxicity; also recorded: no differences between the groups”; in data set [3] (listed as Bobcat), “no differences between the groups”. The liver toxicity entry in data set [3] (3 mg/kg i.p. once a week) is given as “no evidence of liver toxicity”. Moreover, the TET3 protein level entry in data set [4] was “decreased the levels of TET3 protein; also recorded: decreased the level of TET3; also recorded: a decrease in TET3 at the protein level”. Further, in data set [5], the TET2 expression entry is recorded as “did not affect TET2 expression”.
